Data from paper PMC7413254 (Nature Communications, 2020).

Assays:
[1] = tested on: non-expressing oocytes; assay: cells; type: cell-based, Xenopus laevis
Procedure, shortened: (§1)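 Oocytes expressing PfCRT isoforms, or non-expressing controls, were incubated 1.5 h at 27.5 °C in ND96 buffer pH 5.5 (96 mM NaCl, 2 mM KCl, 1 mM MgCl2, 1.8 mM CaCl2, 10 mM MES, 10 mM Tris-base), measuring uptake from acidic medium into cytosol. Oocytes were washed ice-cold, SDS-lysed and counted by scintillation.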

[2] = target: T1, PfCRT^Dd2 (Plasmodium falciparum, UniProt Q9N623, A220S/I356T/K76T/M74I/N326S/N75E/Q271E/R371I); assay: [3H]CQ uptake into Xenopus oocytes, cis-inhibition by unlabelled solute; type: cell-based; conditions: PfCRTEcu1110 and PfCRTDd2
T1 sequence (Q9N623 whole entry A220S/I356T/K76T/M74I/N326S/N75E/Q271E/R371I): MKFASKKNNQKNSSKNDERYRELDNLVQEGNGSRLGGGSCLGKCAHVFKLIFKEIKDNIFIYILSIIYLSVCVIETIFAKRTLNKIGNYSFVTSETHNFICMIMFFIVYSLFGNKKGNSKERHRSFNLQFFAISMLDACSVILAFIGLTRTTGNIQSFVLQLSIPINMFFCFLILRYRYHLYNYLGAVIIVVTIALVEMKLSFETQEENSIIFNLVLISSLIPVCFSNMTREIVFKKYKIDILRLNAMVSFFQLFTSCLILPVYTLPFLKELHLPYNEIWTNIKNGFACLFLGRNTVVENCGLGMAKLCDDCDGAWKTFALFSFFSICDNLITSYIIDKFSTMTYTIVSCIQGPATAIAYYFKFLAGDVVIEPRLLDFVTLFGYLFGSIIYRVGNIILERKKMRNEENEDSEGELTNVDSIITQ
Procedure, shortened: as §1

[3] = target: PfCRT^3D7 (Plasmodium falciparum, UniProt Q8IBZ9); assay: cell-based; type: cell-based; conditions: for [3H]CQ transport, PfCRT3D7 (% PfCRT3D7 control): trans-stimulation, solute 45 mM injected (estimated intracellular)
Chain of PfCRT^3D7 (Q8IBZ9 59-398): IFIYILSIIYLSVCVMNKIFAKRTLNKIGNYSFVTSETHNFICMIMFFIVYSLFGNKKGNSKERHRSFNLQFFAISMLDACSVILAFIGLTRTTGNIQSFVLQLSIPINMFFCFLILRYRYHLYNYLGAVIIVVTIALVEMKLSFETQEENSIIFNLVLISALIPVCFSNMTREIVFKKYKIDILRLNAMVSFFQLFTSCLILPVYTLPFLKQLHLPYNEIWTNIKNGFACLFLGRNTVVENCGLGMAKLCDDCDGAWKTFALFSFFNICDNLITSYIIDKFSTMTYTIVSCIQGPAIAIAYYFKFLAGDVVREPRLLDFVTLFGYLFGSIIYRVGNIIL
Procedure, shortened: (§2)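 Transport measured in Xenopus oocytes expressing the transporters, 1.5 h at 27.5 °C in ND96 pH 5.5 unless noted. For trans-stimulation, VF-6 injected in 25 nL ND96 at pH 5.0–7.0 or Na^+-free (choline) buffer; intracellular levels based on ~400 nL oocyte volume. Ten oocytes per treatment, ≥4 experiments.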

[4] = target: PfCRT^Ecu1110 (Plasmodium falciparum, UniProt Q9N623, A220S/I356L/K76T/N326D); assay: cell-based; type: cell-based; conditions: PfCRTEcu1110; mean ± SEM, n = 5; SEM
Chain of PfCRT^Ecu1110 (Q9N623 whole entry A220S/I356L/K76T/N326D): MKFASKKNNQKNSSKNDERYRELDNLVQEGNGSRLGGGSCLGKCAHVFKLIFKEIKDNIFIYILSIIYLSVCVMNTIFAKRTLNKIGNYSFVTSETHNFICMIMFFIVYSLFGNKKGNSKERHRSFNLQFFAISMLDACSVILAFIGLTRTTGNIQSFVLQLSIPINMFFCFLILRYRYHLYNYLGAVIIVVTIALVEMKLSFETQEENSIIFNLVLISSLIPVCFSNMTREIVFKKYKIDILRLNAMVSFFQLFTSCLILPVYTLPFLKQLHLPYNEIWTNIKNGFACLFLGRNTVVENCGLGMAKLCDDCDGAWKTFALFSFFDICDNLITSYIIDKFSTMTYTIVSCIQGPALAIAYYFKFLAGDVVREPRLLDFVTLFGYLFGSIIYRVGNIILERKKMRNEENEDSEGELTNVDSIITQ
Procedure, shortened: as §2

[5] = target: T1, PfCRT^Dd2; assay: cell-based; type: cell-based; conditions: PfCRTDd2; mean ± SEM, n = 5; SEM
Procedure, shortened: as §2

[6] = target: T2, PfNT1 (Plasmodium falciparum, UniProt Q8IDM6); assay: cell-based; type: cell-based; conditions: trans-stimulation, solute 45 mM injected (estimated intracellular)
T2 construct: expressed in transfected cells; host or cells: Xenopus laevis oocytes (stage V-VI), cRNA-injected
T2 sequence (Q8IDM6 whole entry): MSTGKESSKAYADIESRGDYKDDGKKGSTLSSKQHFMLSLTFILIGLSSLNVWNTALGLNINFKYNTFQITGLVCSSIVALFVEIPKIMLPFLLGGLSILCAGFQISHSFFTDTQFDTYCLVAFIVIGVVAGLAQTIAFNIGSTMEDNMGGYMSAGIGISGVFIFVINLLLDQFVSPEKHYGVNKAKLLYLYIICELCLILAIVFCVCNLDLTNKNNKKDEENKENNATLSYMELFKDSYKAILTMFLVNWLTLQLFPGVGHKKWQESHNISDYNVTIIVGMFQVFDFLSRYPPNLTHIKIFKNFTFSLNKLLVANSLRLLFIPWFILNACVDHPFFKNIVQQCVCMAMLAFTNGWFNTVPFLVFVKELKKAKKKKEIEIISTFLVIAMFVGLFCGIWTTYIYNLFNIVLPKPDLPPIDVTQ
Procedure, shortened: as §2

## CCN(CC)CCCC(C)Nc1ccnc2cc(Cl)ccc12 (stereo not shown) [CQ, chloroquine, reference compound]
[1]; 0 mM Ca2+, Experiment 1
  [3H]CQ transport, non-expressing oocytes: 3.74 % PfCRTDd2 control
[1]; 0 mM Ca2+, Experiment 2
  [3H]CQ transport, non-expressing oocytes: 3.63 % PfCRTDd2 control
[1]; 0 mM Ca2+, Experiment 3
  [3H]CQ transport, non-expressing oocytes: 4.25 % PfCRTDd2 control
[1]; 0 mM Ca2+, Experiment 4
  [3H]CQ transport, non-expressing oocytes: 3.26 % PfCRTDd2 control
[1]; 0 mM Cl-, Experiment 1
  [3H]CQ transport, non-expressing oocytes: 4.15 % PfCRTDd2 control
[1]; 0 mM Cl-, Experiment 2
  [3H]CQ transport, non-expressing oocytes: 3.26 % PfCRTDd2 control
[1]; 0 mM Cl-, Experiment 3
  [3H]CQ transport, non-expressing oocytes: 3.11 % PfCRTDd2 control
[1]; 0 mM Cl-, Experiment 4
  [3H]CQ transport, non-expressing oocytes: 3.85 % PfCRTDd2 control
[1]; 0 mM Na+, Experiment 1
  [3H]CQ transport, non-expressing oocytes: 3.84 % PfCRTDd2 control
[1]; 0 mM Na+, Experiment 2
  [3H]CQ transport, non-expressing oocytes: 3.27 % PfCRTDd2 control
[1]; 0 mM Na+, Experiment 3
  [3H]CQ transport, non-expressing oocytes: 3.36 % PfCRTDd2 control
[1]; 0 mM Na+, Experiment 4
  [3H]CQ transport, non-expressing oocytes: 3.51 % PfCRTDd2 control
[1]; 1 mM Ca2+, Experiment 1
  [3H]CQ transport, non-expressing oocytes: 3.79 % PfCRTDd2 control
[1]; 1 mM Ca2+, Experiment 2
  [3H]CQ transport, non-expressing oocytes: 4.21 % PfCRTDd2 control
[1]; 1 mM Ca2+, Experiment 3
  [3H]CQ transport, non-expressing oocytes: 3.27 % PfCRTDd2 control
[1]; 1 mM Ca2+, Experiment 4
  [3H]CQ transport, non-expressing oocytes: 3.32 % PfCRTDd2 control
[1]; 3 mM Ca2+, Experiment 1
  [3H]CQ transport, non-expressing oocytes: 3.39 % PfCRTDd2 control
[1]; 3 mM Ca2+, Experiment 2
  [3H]CQ transport, non-expressing oocytes: 3.63 % PfCRTDd2 control
[1]; 3 mM Ca2+, Experiment 3
  [3H]CQ transport, non-expressing oocytes: 3.89 % PfCRTDd2 control
[1]; 3 mM Ca2+, Experiment 4
  [3H]CQ transport, non-expressing oocytes: 3.96 % PfCRTDd2 control
[1]; 5 mM Ca2+, Experiment 1
  [3H]CQ transport, non-expressing oocytes: 3.68 % PfCRTDd2 control
[1]; 5 mM Ca2+, Experiment 2
  [3H]CQ transport, non-expressing oocytes: 3.26 % PfCRTDd2 control
[1]; 5 mM Ca2+, Experiment 3
  [3H]CQ transport, non-expressing oocytes: 3.94 % PfCRTDd2 control
[1]; 5 mM Ca2+, Experiment 4
  [3H]CQ transport, non-expressing oocytes: 3.67 % PfCRTDd2 control
[1]; Control, Experiment 1, Supp Fig. 2b
  [3H]CQ transport, non-expressing oocytes: 3.53 % PfCRTDd2 control
[1]; Control, Experiment 1, Supp Fig. 2f
  [3H]CQ transport, non-expressing oocytes: 3.93 % PfCRTDd2 control
[1]; Control, Experiment 1, Supp Fig. 2d
  [3H]CQ transport, non-expressing oocytes: 3.52 % PfCRTDd2 control
[1]; Control, Experiment 2, Supp Fig. 2b
  [3H]CQ transport, non-expressing oocytes: 3.62 % PfCRTDd2 control
[1]; Control, Experiment 2, Supp Fig. 2f
  [3H]CQ transport, non-expressing oocytes: 3.26 % PfCRTDd2 control
[1]; Control, Experiment 2, Supp Fig. 2d
  [3H]CQ transport, non-expressing oocytes: 3.16 % PfCRTDd2 control
[1]; Control, Experiment 3, Supp Fig. 2b
  [3H]CQ transport, non-expressing oocytes: 3.28 % PfCRTDd2 control
[1]; Control, Experiment 3, Supp Fig. 2f
  [3H]CQ transport, non-expressing oocytes: 3.29 % PfCRTDd2 control
[1]; Control, Experiment 3, Supp Fig. 2d
  [3H]CQ transport, non-expressing oocytes: 3.75 % PfCRTDd2 control
[1]; Control, Experiment 4, Supp Fig. 2b
  [3H]CQ transport, non-expressing oocytes: 3.81 % PfCRTDd2 control
[1]; Control, Experiment 4, Supp Fig. 2f
  [3H]CQ transport, non-expressing oocytes: 4.38 % PfCRTDd2 control
[1]; Control, Experiment 4, Supp Fig. 2d
  [3H]CQ transport, non-expressing oocytes: 3.21 % PfCRTDd2 control

## CC(C)(C)NC(=O)[C@@H]1C[C@@H]2CCCC[C@@H]2CN1C[C@@H](O)[C@H](Cc1ccccc1)NC(=O)[C@H](CC(N)=O)NC(=O)c1ccc2ccccc2n1 [Saquinavir, saquinavir, reference compound]
[2]
  Cis-inhibition of [3H]CQ transport (in words): cis-inhibited
[3]; PfCRT3D7, mean ± SEM, n = 5, SEM
  App Vmax for the trans-stimulatory effect of the peptide mimic on [3H]CQ transport: 2.2 ±0.5 pmol/oocyte/h
[3]; PfCRT isoforms as stated in the sentence
  Trans-stimulation of [3H]CQ transport via PfCRT (in words): trans-stimulated
[3]; Experiment 1
  [3H]CQ transport, PfCRT3D7 (% PfCRT3D7 control): 157.43 % PfCRT3D7 control
[3]; Experiment 2
  [3H]CQ transport, PfCRT3D7 (% PfCRT3D7 control): 162.15 % PfCRT3D7 control
[3]; Experiment 3
  [3H]CQ transport, PfCRT3D7 (% PfCRT3D7 control): 143.46 % PfCRT3D7 control
[3]; Experiment 4
  [3H]CQ transport, PfCRT3D7 (% PfCRT3D7 control): 158.34 % PfCRT3D7 control
[4]
  App Vmax for the trans-stimulatory effect of the peptide mimic on [3H]CQ transport: 1.6 ±0.2 pmol/oocyte/h
[5]
  App Vmax for the trans-stimulatory effect of the peptide mimic on [3H]CQ transport: 0.8 ±0.05 pmol/oocyte/h
[6]; Experiment 1
  [3H]CQ transport, PfNT1 (% PfCRTDd2 control): 2.62 % PfCRTDd2 control
[6]; Experiment 2
  [3H]CQ transport, PfNT1 (% PfCRTDd2 control): 2.47 % PfCRTDd2 control
[6]; Experiment 3
  [3H]CQ transport, PfNT1 (% PfCRTDd2 control): 2.54 % PfCRTDd2 control
[6]; Experiment 4
  [3H]CQ transport, PfNT1 (% PfCRTDd2 control): 2.32 % PfCRTDd2 control
